Assay results reported in PMC3925085, “Subditine, a New Monoterpenoid Indole Alkaloid from Bark of Nauclea subdita (Korth.) Steud. Induces Apoptosis in Human Prostate Cancer Cells” (PLoS ONE, 2014).

Columns and labels:
[1] = tested on: PC-3 human prostate cancer cells; experiment: MTT cell proliferation assay, PC-3; type: cell-based
Protocol: Human prostate normal cell line (RWPE-1) and human prostate cancer cell lines; LNCaP and PC-3, were purchased from the American Type Culture Collection (ATCC, Manassas, Virginia, USA). LNCaP and PC-3 cells were grown in Roswell Park Memorial Institute medium (RPMI) supplemented with 10% heat-inactivated fetal bovine serum (FBS, Sigma-Aldrich, St. Louis, MO), 1% penicillin and streptomycin. RWPE-1 cells were maintained in Keratinocyte Serum Free Medium (K-SFM, ATCC) supplemented with bovine pituitary extract (BPE) and human recombinant epidermal growth factor (EGF). Mediums were supplemented with 10% heat-inactivated fetal calf serum (Sigma.), 100 U/ml penicillin and […] streptomycin (Flowlab, Sydney, Australia). All cells were maintained in a humidified atmosphere of 5% CO2 in air at 37°C incubator.
The anti-proliferative activity was evaluated by performing MTT assays as previously described with minor modifications. Briefly, cells were seeded 24 hours prior to treatment in a 96-well plate at 5×10^4 cells/well in order to obtain 70% to 80% confluent cultures. The compounds were dissolved in DMSO (Sigma Chemical Co., St. Louis, Missouri, USA) followed by a 2×serial dilution for 10 points ranged from 0.825 µM to 100 µM. The 96-well plate was incubated for 24 hours at 37°C in a humidified atmosphere with 5% CO2. At the end of incubation, 50 µl of MTT solution (2 mg/ml; Sigma) was added to each well. The plate was then incubated for 4 hours. All medium was removed and the purple formazan crystal formed at the bottom of the wells was dissolved with 200 µl DMSO for 20 minutes. The absorbance at 570 nm was read on a spectrophotometric plate reader (Hidex). The proportion of surviving cells was calculated as: […]
Dose-response curves were constructed to obtain the IC50 values. Experimental data were derived from 3 independent experiments. The selectivity index was obtained by mean IC50 RWPE-1/mean IC50 of LNCaP or PC-3.

[2] = tested on: caspase-3/7 in LNCaP cells; experiment: Caspase-Glo 3/7 bioluminescent assay, LNCaP; type: cell-based, human
Protocol: (§1) A time-dependent study of caspase-3/7, -8, and -9 activities was performed in triplicates using assay kits Caspase-Glo 3/7, 8, and 9 (Promega Corp.,Madison,WI, USA) on white 96-well microplate as described previously. A total of 10,000 cells per well was seeded and treated with […] of subditine (1) for 6, 12, 18, 24, and 30 hours. Then, 100 µL of the caspase-Glo reagent was added, incubated at room temperature for 30 minutes and measured using Tecan Infinite 200 Pro (Tecan, Mannedorf, Swizerland) microplate reader.

[3] = tested on: caspase-3/7 in PC-3 cells; experiment: Caspase-Glo 3/7 bioluminescent assay, PC-3; type: cell-based, human
Protocol: as §1

caspase-9 in LNCaP cells = experiment: Caspase-Glo 9 bioluminescent assay, LNCaP; type: cell-based, human
Protocol: as §1

caspase-9 in PC-3 cells = experiment: Caspase-Glo 9 bioluminescent assay, PC-3; type: cell-based, human
Protocol: as §1

caspase-8 in LNCaP cells = experiment: Caspase-Glo 8 bioluminescent assay, LNCaP; type: cell-based, human; settings: 12.5 µM, throughout 30 hours
Protocol: as §1

caspase-8 in PC-3 cells = experiment: Caspase-Glo 8 bioluminescent assay, PC-3; type: cell-based, human; settings: PC-3, 12.5 µM, throughout 30 hours
Protocol: as §1

LNCaP cells = experiment: Cellomics multiparameter cytotoxicity assay, LNCaP; type: cell-based, human
Protocol: (§2) Cytotoxicity 3 kit (Thermo Scientific) was used as described previously. Briefly, 24 hours after subditine (1) treatment, MMP dye and the cell permeability dye were added to live cells and incubated for 30 minutes at 37°C. Cells were fixed, permeabilized, blocked with 1x blocking buffer before probing with primary cytochrome c and secondary DyLight 649 conjugated goat anti-mouse IgG antibodies for 1 hour each. Hoechst 33342 was added into the staining solution. Plates were then analyzed using the ArrayScan high content screening (HCS) system (Cellomics, PA, USA). Data were captured, extracted and analyzed with ArrayScan II Data Acquisition and Data Viewer version 3.0.

PC-3 cells = experiment: Cellomics multiparameter cytotoxicity assay, PC-3; type: cell-based, human
Protocol: as §2

[4] = tested on: Bcl-2 expression in PC-3 cells; experiment: Western blotting, Bcl-2 in PC-3; type: cell-based, human; settings: 24 h
Protocol: (§3) To determine protein expression, 1×10^6 cells/mL were seeded and treated with subditine (1) or paclitaxel for 24 h. Whole cell extracts were prepared as previously described. Briefly, cells were collected, lysed and resolved on 10% SDS-polyacrylamide gels. After electrophoresis, the proteins were transferred to PVDF membranes (Millipore), blocked with 5% nonfat dry milk in PBS-T (0.05% Tween 20) for 1 hour at room temperature. Membranes were probed with primary rabbit anti-Bcl-2, Bcl-xL or p53 antibodies followed by horseradish peroxidase (HRP)-conjugated secondary anti-rabbit antibody (Cell Signaling Technology Inc., CA, USA). Membranes were stripped and reprobed with mouse anti-β-actin antibody as loading control (Santa Cruz Biotechnology Inc.). Protein-antibody complexes were detected with Amersham ECL prime Western blotting detection reagent (GE Healthcare, USA).

[5] = tested on: Bcl-xL expression in PC-3 cells; experiment: Western blotting, Bcl-xL in PC-3; type: cell-based, human; settings: 24 h
Protocol: as §3

[6] = tested on: p53 expression in LNCaP cells; experiment: Western blotting, p53 in LNCaP; type: cell-based, human; settings: LNCaP (p53-wild-type), 24 h
Protocol: as §3

[7] = tested on: p53 expression in PC-3 cells; experiment: Western blotting, p53 in PC-3; type: cell-based, human; settings: PC-3 (p53-null), 24 h
Protocol: as §3

[8] = tested on: Bcl-2 expression in LNCaP cells; experiment: Western blotting, Bcl-2 in LNCaP; type: cell-based, human; settings: 24 h
Protocol: as §3

[9] = tested on: Bcl-xL expression in LNCaP cells; experiment: Western blotting, Bcl-xL in LNCaP; type: cell-based, human; settings: 24 h
Protocol: as §3

[10] = after 12 and 24 hours exposure, 12.25 µM
[11] = PC-3, after 12 and 24 hours exposure, 12.25 µM
[12] = PC-3, 24 h, compared to control
[13] = PC-3, 12.5 µM, compared to control

Cc1ncc2c(=O)n3c(cc2c1C=O)-c1[nH]c2ccccc2c1CC3 [Subditine, subditine]
IC50 ([1]; Homo sapiens, MTT, 24 hours, PC-3, mean ± S.D.): 14 ± 0.32 µM | folds more potent against PC-3 than normal prostate cells RWPE-1 ([1]; PC-3 vs RWPE-1): 2.2 folds | selectivity index (SI) PC-3 ([1]; mean IC50 RWPE-1/mean IC50 of PC-3): 2.18 | caspase-3/7 activity [2, 10]: significant increase | time of peak caspase-3/7 activity ([2]; time points 6-30 hours): 18 h | caspase-3/7 activity [3, 11]: significant increase | time of peak caspase-3/7 activity ([3]; PC-3, time points 6-30 hours): 18 h | caspase-9 activity (caspase-9 in LNCaP cells; [10]): significant increase | time of highest caspase-9 activity (caspase-9 in LNCaP cells; time points 6-30 hours): 24 h | caspase-9 activity (caspase-9 in PC-3 cells; [11]): significant increase | time of highest caspase-9 activity (caspase-9 in PC-3 cells; PC-3, time points 6-30 hours): 24 h | caspase 8 activity (caspase-8 in LNCaP cells): No significant fold-change | caspase 8 activity (caspase-8 in PC-3 cells): No significant fold-change | cytochrome c release (cytosolic staining) (LNCaP cells; 24 h, compared to control): increased fluorescent-staining in the cytosol | membrane permeability (LNCaP cells; 24 h, compared to control): higher membrane permeability | mitochondrial membrane potential (MMP) fluorescence intensity (LNCaP cells; 24 hours): dose-dependent reduction | cytochrome c release (cytosolic staining) (PC-3 cells; [12]): increased fluorescent-staining in the cytosol | membrane permeability (PC-3 cells; [12]): higher membrane permeability | mitochondrial membrane potential (MMP) fluorescence intensity (PC-3 cells; PC-3, 24 hours): dose-dependent reduction | Bcl-2 protein expression [4, 13]: no significant change | Bcl-2 protein expression ([4]; PC-3, 25 and 50 µM): drastically down-regulated | Bcl-xL protein expression [5, 13]: no significant change | Bcl-xL protein expression ([5]; PC-3, 25 and 50 µM): drastically down-regulated | p53 expression [6]: up-regulate | p53 expression [7]: did not restore or enhance | Bcl-2 expression [8]: down-regulation | Bcl-xL expression [9]: down-regulation
